Key:
[1] = system: mouse myocardial infarction modelling (LAD ligation); test: Cardiac ultrasound testing of cardiac function after myocardial infarction (EF, FS, LVEDD, LVESD); format: in vivo, C57BL/6J mice
Excerpt: The sham-operated group was only passed through the lower part of the LAD without ligation, and the rest were the same as the model group. After ligation, it turned white from the ligation site to the cardiac apex when observed with the naked eyes. The left ventricular tissue was taken for cardiac tissue staining after 1 week and obvious fibrosis was observed, indicating the successful establishment of the myocardial infarction modelling. […] After anesthesia of mice (same method as before) and depilation, the mice lied on the left side, and the probe of the cardiac ultrasound diagnostic instrument was placed on the anterior wall of the heart, a two-dimensional short-axis view of the left ventricle at the papillary muscle level was taken and the M-mode ultrasonic scanning was recorded. And left ventricular ejection fraction (EF), shortening fraction (FS), left ventricular end diastolic diameter (LVEDD), and left ventricular end systolic diameter (LVESD) were measured for three consecutive cardiac cycles.

[2] = system: mouse myocardial infarction modelling (LAD ligation); test: Ventricular remodeling: HW/BW and Masson staining, myocardial infarction area/heart area; format: in vivo, C57BL/6J mice; conditions: MSCs + 2-DG 500 mg/kg/day intraperitoneal; 28 days after surgery; FIG. 2
Excerpt: The sham-operated group was only passed through the lower part of the LAD without ligation, and the rest were the same as the model group. After ligation, it turned white from the ligation site to the cardiac apex when observed with the naked eyes. The left ventricular tissue was taken for cardiac tissue staining after 1 week and obvious fibrosis was observed, indicating the successful establishment of the myocardial infarction modelling. […] Masson staining: The mice were euthanized 28 days after surgery, and left ventricular tissue was taken for cardiac tissue staining to observe the therapeutic effect. It was carried out according to the routine Masson staining steps, and the observation and photo-taking were carried out under a regular optical microscope. The image analysis software Image J was used to analyze the area of each part and calculate the myocardial infarction area/heart area.

[3] = system: transplanted MSCs; test: Survival of transplanted CM-Dil-stained mesenchymal stem cells (immunofluorescence, flow cytometry); conditions: MSCs + 2-DG 500 mg/kg/day intraperitoneal; 3rd day after surgery; FIG. 3

O=CC[C@@H](O)[C@H](O)[C@H](O)CO [2-DG, 2-Deoxy-D-glucose]
cardiac function of mice treated with MSCs after myocardial infarction ([1]; MSCs 5×105 intramyocardial + 2-DG 500 mg/kg/day intraperitoneal, FIG. 1): improvement of cardiac function
function of MSCs in improving myocardial infarction (overall conclusion) ([1]; conclusion from Examples 1-3, MSCs + 2-DG): can effectively improve the function of MSCs in improving myocardial infarction
ventricular remodeling of mice treated with MSCs after myocardial infarction [2]: improvement of ventricular remodeling
survival of transplanted MSCs [3]: significantly increases the survival of transplanted MSCs
